Reference: paper PMC5414857 (Toxicological Sciences, 2017)

Biological target: bile salt export pump (BSEP) (Homo sapiens, UniProt O95342)
Assay type: biochemical

Sequence of bile salt export pump (BSEP) (O95342 whole entry): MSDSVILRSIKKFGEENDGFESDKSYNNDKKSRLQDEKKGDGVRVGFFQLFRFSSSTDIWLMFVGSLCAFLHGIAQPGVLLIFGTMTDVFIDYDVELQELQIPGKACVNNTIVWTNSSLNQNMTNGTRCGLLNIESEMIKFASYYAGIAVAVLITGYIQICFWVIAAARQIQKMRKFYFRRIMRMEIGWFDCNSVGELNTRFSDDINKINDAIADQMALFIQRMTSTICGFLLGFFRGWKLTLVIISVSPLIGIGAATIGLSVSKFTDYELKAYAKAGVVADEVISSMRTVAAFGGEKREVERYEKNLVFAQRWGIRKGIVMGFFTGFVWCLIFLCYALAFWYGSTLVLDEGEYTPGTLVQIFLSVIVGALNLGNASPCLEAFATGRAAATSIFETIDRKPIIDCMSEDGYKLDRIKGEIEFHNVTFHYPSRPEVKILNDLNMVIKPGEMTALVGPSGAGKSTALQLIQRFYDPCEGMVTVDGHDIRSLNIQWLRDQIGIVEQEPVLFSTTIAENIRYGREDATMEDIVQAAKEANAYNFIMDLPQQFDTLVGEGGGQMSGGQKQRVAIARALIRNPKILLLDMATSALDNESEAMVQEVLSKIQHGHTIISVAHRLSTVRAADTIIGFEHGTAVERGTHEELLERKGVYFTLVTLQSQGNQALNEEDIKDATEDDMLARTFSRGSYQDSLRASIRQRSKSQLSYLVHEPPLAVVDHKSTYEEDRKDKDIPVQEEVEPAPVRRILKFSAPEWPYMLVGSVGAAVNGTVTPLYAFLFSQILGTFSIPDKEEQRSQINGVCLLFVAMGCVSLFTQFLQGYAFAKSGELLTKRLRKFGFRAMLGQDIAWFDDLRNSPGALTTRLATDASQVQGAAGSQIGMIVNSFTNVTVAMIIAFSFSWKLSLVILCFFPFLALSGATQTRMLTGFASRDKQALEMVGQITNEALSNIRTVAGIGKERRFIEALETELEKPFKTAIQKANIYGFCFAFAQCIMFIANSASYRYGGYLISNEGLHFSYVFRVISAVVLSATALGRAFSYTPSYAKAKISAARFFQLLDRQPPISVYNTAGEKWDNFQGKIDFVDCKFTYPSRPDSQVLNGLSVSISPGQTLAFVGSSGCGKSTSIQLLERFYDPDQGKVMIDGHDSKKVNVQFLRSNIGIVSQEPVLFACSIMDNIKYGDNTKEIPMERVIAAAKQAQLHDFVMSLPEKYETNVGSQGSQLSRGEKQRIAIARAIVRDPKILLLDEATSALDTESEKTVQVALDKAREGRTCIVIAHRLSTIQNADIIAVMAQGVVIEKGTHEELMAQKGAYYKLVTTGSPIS

With Cc1cc(OCCCS(C)(=O)=O)cc(C)c1-c1cccc(COc2ccc3c(c2)OC[C@H]3CC(=O)O)c1 [TAK-875] as the compound, how does the IC50 read?
Its IC50 is 14.3 µM.
